Data from patent US20210095322A1, “HIGH-PURITY STEVIOL GLYCOSIDES” (PureCircle USA Inc., priority 2018, published 2021).
Like-named read-outs stand apart in the source and are kept apart here.

Tests used:
[1] = Sweetness perception threshold (FEMA method, 2-AFC vs 1.5% sugar) in neutral water; type: in vivo, human; conditions: for % Frequency / PC (paired comparison count, panelists choosing the sample as sweeter): 2-AFC, n = 30
Experimental: A series of experiments were performed to evaluate the effect of Reb AM on taste and flavor profile. The sweetness and taste/flavor modification can influence each other in food and beverage applications. To determine the influence of the taste and flavor modification in different applications, the FEMA (Flavor and Extract Manufacturing Association) prescribes a sensory method that determines the sweetness perception threshold determination presented in Experiment 1, which is discussed below.
Experiment 1 provides the estimate of Reb AM concentration in water that barely contributes to sweetness perception. […] The summary of sweetness perception threshold for selected steviol glycosides is below in Table 11.
Therefore we selected 50 ppm of Reb AM as the recognition threshold concentration.

[2] = Solubility characteristics and solution stability in water; type: physicochemical; conditions: for Solubility: summary of solution stability in water
Experimental: Solubility characteristics were measured as follows. Prepare the following solutions in water and stir at 700 rpm for each. Add heat if necessary at 2 minutes and 30 seconds of stirring. Using a stopwatch, determine how long it takes all powder to dissolve completely and record the temperature at which it dissolves. The following table summarizes the solubility characteristics of Rebaudiosides D, M, and AM.

[3] = Isosweet determination (2-AFC) vs sucrose in acidified water, sweetness potency; type: in vivo, human; conditions: pH = 3.2
Experimental: As an example, Reb AM was evaluated.

[4] = FEMA GRAS publication; cited from earlier work
[5] = Taste panel of no-calorie Lemon-lime carbonated soft drink; type: in vivo, human; conditions: 500 ppm in Lemon-lime CSD
Source text: A group of trained and experienced taste panel members evaluated no-calorie Lemon-lime carbonated soft drink (CSD) sweetened with 500 ppm of Reb AM, Reb D, or Reb M samples.

[6] = Flavor modification of Raspberry Watermelon Coconut Water, sensory panel; type: in vivo, human; set-up: Sweet Intensity mean score / Bitter Intensity mean score / Astringency mean score / Coconut Flavor mean score / Watermelon Flavor mean score / Raspberry Flavor mean score / Artificial/Chemical Note mean score / Sweet Aftertaste mean score / Bitter Aftertaste mean score / Overall Liking mean score: scale not given here
Source text: Thirty panel members evaluated two samples of raspberry watermelon flavored coconut water for overall acceptance and attribute intensities (sweetness, Raspberry flavor, watermelon flavor, coconut water flavor, saltiness, bitterness, and sweet aftertaste, bitter aftertaste) in two sessions. In session one, the two samples included: 1) store-bought Raspberry Watermelon Coconut Water control sample and 2) store-bought Raspberry Watermelon Coconut Water test sample containing Reb AM. The objective of the test was to determine if the addition of Reb AM affects the flavor profile of a non-alcoholic beverage.
The test objective is to determine if the flavor profile and overall acceptance of a Control sample of flavored coconut water differs from a Test sample of the same beverage containing Reb AM.

[7] = Flavor modification of chocolate flavored dairy protein shake, sensory panel; type: in vivo, human; set-up: Sweet Intensity mean score / Bitterness mean score / Metallic Note mean score / Cocoa Flavor mean score / Dairy Note mean score / Whey Protein Note mean score / Vanilla Note mean score / Sweet Aftertaste mean score / Bitter Aftertaste mean score / Overall Liking mean score: scale not given here
Source text: Thirty trained panelists evaluated two samples of chocolate flavored dairy protein shake for overall acceptance and attribute intensities (cocoa flavor, dairy note, whey protein, vanilla, metallic, sweetness, bitterness and aftertaste). The two samples included: 1) no sugar added “Control” sample containing 300 ppm PureCircle Reb A and 2) no sugar added “Test” sample containing 300 ppm PureCircle Reb A and 50 ppm Reb AM. The objective of the test was to determine if the addition of Reb AM affects the flavor profile of a milk product.
The test objective is to determine if the flavor profile and overall acceptance of a control sample of dairy beverage application differs from a Test sample of the same beverage containing Reb AM.

[8] = 1.5% Sucrose vs 30 ppm Reb AM in neutral water
[9] = 1.5% Sucrose vs 50 ppm Reb AM in neutral water
[10] = 1.5% Sucrose vs 70 ppm of Reb AM in neutral water
[11] = 1.5% Sucrose vs 100 ppm Reb AM in neutral water
[12] = 50 ppm Reb AM in coconut water, 95% confidence
[13] = Coconut water (raspberry/watermelon flavor) with 50 ppm of Reb AM, 30 panelists
[14] = 50 ppm Reb AM added to shake with 300 ppm Reb A, 95% confidence
[15] = NSA Chocolate Vanilla Protein Dairy Shake w Reb A & 50 ppm Reb AM, 30 panelists

OC[C@H]1O[C@@](CO)(O[C@H]2O[C@H](CO)[C@@H](O)[C@H](O)[C@H]2O)[C@@H](O)[C@@H]1O [Sucrose]
% Frequency [1, 8]: 96.7% | PC (paired comparison count, panelists choosing the sample as sweeter) [1, 8]: 29 | % Frequency [1, 9]: 76.7% | PC (paired comparison count, panelists choosing the sample as sweeter) [1, 9]: 23 | % Frequency [1, 10]: 30% | PC (paired comparison count, panelists choosing the sample as sweeter) [1, 10]: 9 | % Frequency [1, 11]: 10% | PC (paired comparison count, panelists choosing the sample as sweeter) [1, 11]: 3

C=C1C[C@@]23CC[C@H]4[C@@](C)(CCC[C@@]4(C)C(=O)O[C@@H]4O[C@H](CO)[C@@H](O)[C@H](O)[C@H]4O[C@@H]4O[C@H](CO)[C@@H](O)[C@H](O)[C@H]4O)[C@@H]2CC[C@]1(O[C@@H]1O[C@H](CO)[C@@H](O)[C@H](O[C@@H]2O[C@H](CO)[C@@H](O)[C@H](O)[C@H]2O)[C@H]1O[C@@H]1O[C@H](CO)[C@@H](O)[C@H](O)[C@H]1O)C3 [Reb D, rebaudioside D]
Comment on solubility ([2]; Test Conc. 0.05%): Easily Soluble | Dissolution in water (Heated), temperature ([2]; Test Conc. 0.05%): temp: 39 deg. C. | Solution after 24 hrs ([2]; Test Conc. 0.05%): Clear | Solution after 48 hrs ([2]; Test Conc. 0.05%): Clear | Comment on solubility ([2]; Test Conc. 0.1%): Easily Soluble | Dissolution in water (Heated), temperature ([2]; Test Conc. 0.1%): temp: 72 deg. C. | Solution after 24 hrs ([2]; Test Conc. 0.1%): Clear | Solution after 48 hrs ([2]; Test Conc. 0.1%): Clear | Comment on solubility ([2]; Test Conc. 0.3%): Requires | Dissolution in water (Heated), temperature ([2]; Test Conc. 0.3%): 78.5 deg. C. | Solubility [2]: 0.1% | Sweetness Equivalent (ppm) in Water ([3]; 2.5% SE): 62 ppm | Sweetness Potency in Water ([3]; 2.5% SE): 403 x sugar equivalent | Sweetness Equivalent (ppm) in Water ([3]; 5.0% SE): 212 ppm | Sweetness Potency in Water ([3]; 5.0% SE): 236 x sugar equivalent | Sweetness Equivalent (ppm) in Water ([3]; 7.5% SE): 500 ppm | Sweetness Potency in Water ([3]; 7.5% SE): 150 x sugar equivalent | Sweetness Equivalent (ppm) in Water ([3]; 10.0% SE): 926 ppm | Sweetness Potency in Water ([3]; 10.0% SE): 108 x sugar equivalent | Sweetness Perception Threshold Concentration [4]: 32.5 ppm

C=C1C[C@@]23CC[C@H]4[C@@](C)(CCC[C@@]4(C)C(=O)O[C@@H]4O[C@H](CO)[C@@H](O)[C@H](O[C@@H]5O[C@H](CO)[C@@H](O)[C@H](O)[C@H]5O)[C@H]4O[C@@H]4O[C@H](CO)[C@@H](O)[C@H](O)[C@H]4O)[C@@H]2CC[C@]1(O[C@@H]1O[C@H](CO)[C@@H](O)[C@H](O)[C@H]1O[C@@H]1O[C@H](CO)[C@@H](O)[C@H](O)[C@H]1O)C3 [Reb AM, Rebaudioside AM]
Comment on solubility ([2]; Test Conc. 1%): Easily Soluble | Dissolution in water (Heated) ([2]; Test Conc. 1%): No heat needed | Dissolution water (Ambient), stirring time ([2]; Test Conc. 1%): Stirred for 3 min | Solution after 24 hrs ([2]; Test Conc. 1%): Clear | Solution after 48 hrs ([2]; Test Conc. 1%): Clear | Comment on solubility ([2]; Test Conc. 5%): Easily Soluble | Dissolution in water (Heated), temperature ([2]; Test Conc. 5%): 45 C. | Solution after 24 hrs ([2]; Test Conc. 5%): Clear | Solution after 48 hrs ([2]; Test Conc. 5%): Clear | Comment on solubility ([2]; Test Conc. 10%): Moderately | Dissolution in water (Heated), temperature ([2]; Test Conc. 10%): 54 C. | Solution after 24 hrs ([2]; Test Conc. 10%): Clear | Solution after 48 hrs ([2]; Test Conc. 10%): Slight | Solubility [2]: 10% | Solubility compared with other steviol glycosides ([2]; water): significantly higher solubility than other minor and major steviol glycosides | bitterness compared to CSD with Reb D or Reb M [5]: significantly less | sweetness compared to CSD with Reb D or Reb M [5]: less sweet | sweetness lingering compared to CSD with Reb D or Reb M [5]: significantly less | Sweetness Equivalent (ppm) in Water ([3]; 2.5% SE): 150 ppm | Sweetness Potency in Water ([3]; 2.5% SE): 167 x sugar equivalent | Sweetness Equivalent (ppm) in Water ([3]; 5.0% SE): 365 ppm | Sweetness Potency in Water ([3]; 5.0% SE): 137 x sugar equivalent | Sweetness Equivalent (ppm) in Water ([3]; 7.5% SE): 869 ppm | Sweetness Potency in Water ([3]; 7.5% SE): 86 x sugar equivalent | Sweetness Equivalent (ppm) in Water ([3]; 10.0% SE): 1750 ppm | Sweetness Potency in Water ([3]; 10.0% SE): 57 x sugar equivalent | % Frequency [1, 8]: 3.3% | PC (paired comparison count, panelists choosing the sample as sweeter) [1, 8]: 1 | % Frequency [1, 9]: 23.3% | PC (paired comparison count, panelists choosing the sample as sweeter) [1, 9]: 7 | % Frequency [1, 10]: 70% | PC (paired comparison count, panelists choosing the sample as sweeter) [1, 10]: 21 | % Frequency [1, 11]: 90% | PC (paired comparison count, panelists choosing the sample as sweeter) [1, 11]: 27 | Sweetness perception compared with 1.5% sugar solution ([1]; 50 ppm in water): significantly lower | Sweetness Perception Threshold Concentration ([1]; neutral water, vs 1.5% sugar solution): 50 ppm | sweet aftertaste intensity vs control ([6]; 50 ppm Reb AM in coconut water, 90% confidence): significantly lower | coconut water flavor vs control [6, 12]: significantly higher | mango peach flavor vs control [6, 12]: significantly higher | overall liking vs control [6, 12]: significantly higher | watermelon flavor vs control [6, 12]: significantly higher | Artificial/Chemical Note mean score [6, 13]: 2.55 | Astringency mean score [6, 13]: 1.10 | Bitter Aftertaste mean score [6, 13]: 0.29 | Bitter Intensity mean score [6, 13]: 0.24 | Coconut Flavor mean score [6, 13]: 5.11 | Overall Liking mean score [6, 13]: 5.04 | Raspberry Flavor mean score [6, 13]: 0.95 | Sweet Aftertaste mean score [6, 13]: 1.33 | Sweet Intensity mean score [6, 13]: 4.44 | Watermelon Flavor mean score [6, 13]: 4.41 | impact on sweetness intensity ([7]; 50 ppm Reb AM added to shake with 300 ppm Reb A): no significant impact | bitter aftertaste vs control [7, 14]: lower | bitterness vs control [7, 14]: significantly lower | cocoa flavor vs control [7, 14]: significantly higher | dairy notes vs control [7, 14]: significantly higher | metallic note vs control [7, 14]: significantly lower | overall liking vs control [7, 14]: significantly higher | vanilla flavor vs control [7, 14]: significantly higher | whey protein vs control [7, 14]: significantly lower | Bitter Aftertaste mean score [7, 15]: 0.77 | Bitterness mean score [7, 15]: 1.46 | Cocoa Flavor mean score [7, 15]: 4.55 | Dairy Note mean score [7, 15]: 4.59 | Metallic Note mean score [7, 15]: 1.48 | Overall Liking mean score [7, 15]: 5.59 | Sweet Aftertaste mean score [7, 15]: 1.65 | Sweet Intensity mean score [7, 15]: 5.98 | Vanilla Note mean score [7, 15]: 2.52 | Whey Protein Note mean score [7, 15]: 4.32
